The source of these data is patent publication US10918651B2, “Method for lowering thyrotropin levels in adults” (University of Louisiana at Lafayette, priority 2016, dated 2021).

Series [1] has as its system thyroid stimulating hormone (TSH). As to the method: A study was performed of this invention using forty-eight male college-aged volunteers. The participants were divided into 4 groups of 12 subjects. The groups reported to the lab after an overnight fast and were then administered the following: 200 mg of Caffeine, 250 mg of A-GPC, 500 mg of A-GPC or placebo. One hour and two hours post administration blood was drawn from a vein in the antecubital space into a serum separator tube, this was allowed to stand for 15 minutes, then centrifuged and the serum drawn off and frozen at −35 degrees Celsius for later evaluation.
At the conclusion of data collection, the serum aliquots were thawed and a commercially available high-sensitivity ELISA was uses to quantify TSH levels (Eagle Biosciences TSH Ultrasensitive ELISA kit). Samples were tested in duplicate with inter and intra place CV % of less than 10. A repeated measures Anova was used to assess TSH level by group.

The conditions of series [2]: in vivo; cited from earlier work.
In the next series the test system is dopamine receptors. As to conditions: chronic administration, aging mice; cited from earlier work.

With `C[N+](C)(C)CCOP(=O)([O-])OC[C@H](O)CO` [A-GPC, Alpha Glycerylphosphoryl Choline], the “TSH blood levels (effect)” value in series [1] (250 mg A-GPC, single administration) is given as “insufficient to reduce blood TSH”. In addition, in series [1] (500 mg A-GPC group, 12 males), the “TSH level, group average” value was determined as 2.3 and the “number of males exhibiting TSH levels lower than 2.0” value is listed as 5 of the 12. Further, in series [2], the “crossing the blood brain barrier” value is given as “capable of crossing the blood brain barrier” and the “incorporation into brain phospholipids after administration” value is on record as “incorporated into brain phospholipids within twenty-four hours”.

Consider `C[N+](C)(C)CCOP(=O)(O)OP(=O)([O-])OC[C@H]1O[C@@H](n2ccc(N)nc2=O)[C@H](O)[C@@H]1O` [CDP-choline], for which the “dopamine receptors in the brain” value in the series with dopamine receptors is “increase dopamine receptors in the brain”.
